Measured values as given in the supplement of paper PMC10307832.

Legend:
Test in all cases: relative viability (nuclei count vs DMSO), 5 days (fraction); higher = more cells survive
Pictilisib + OSI-027 = compound: CS(=O)(=O)N1CCN(Cc2cc3nc(-c4cccc5[nH]ncc45)nc(N4CCOCC4)c3s2)CC1 [Pictilisib] + COc1cccc2cc(-c3nc([C@H]4CC[C@H](C(=O)O)CC4)n4ncnc(N)c34)[nH]c12 [OSI-027] (partner 0.5 µM)
Summary of the method: (§1)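 Dosing by pin tool came one day after lung cancer cell lines were seeded in 1536-well plates, using either one drug or a fixed anchor-drug dose plus five library-drug doses (not always all listed) in √10 steps. After 5 days, nuclei were counted on 4× images. Relative viability is treated-well nuclei count divided by vehicle-well nuclei count, and values are medians of duplicate plates.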

MK-2206 + Pictilisib = compound: NC1(c2ccc(-c3nc4ccn5c(=O)[nH]nc5c4cc3-c3ccccc3)cc2)CCC1 [MK-2206] + CS(=O)(=O)N1CCN(Cc2cc3nc(-c4cccc5[nH]ncc45)nc(N4CCOCC4)c3s2)CC1 [Pictilisib] (partner 1 µM)
Summary of the method: as §1

MK-2206 + Navitoclax = compound: NC1(c2ccc(-c3nc4ccn5c(=O)[nH]nc5c4cc3-c3ccccc3)cc2)CCC1 [MK-2206] + CC1(C)CCC(c2ccc(Cl)cc2)=C(CN2CCN(c3ccc(C(=O)NS(=O)(=O)c4ccc(N[C@H](CCN5CCOCC5)CSc5ccccc5)c(S(=O)(=O)C(F)(F)F)c4)cc3)CC2)C1 [Navitoclax] (partner 0.5 µM)
Summary of the method: as §1

MK-2206 + Linsitinib = compound: NC1(c2ccc(-c3nc4ccn5c(=O)[nH]nc5c4cc3-c3ccccc3)cc2)CCC1 [MK-2206] + C[C@]1(O)C[C@@H](c2nc(-c3ccc4ccc(-c5ccccc5)nc4c3)c3c(N)nccn32)C1 [Linsitinib] (partner 1 µM)
Summary of the method: as §1

Pictilisib + Bortezomib = compound: CS(=O)(=O)N1CCN(Cc2cc3nc(-c4cccc5[nH]ncc45)nc(N4CCOCC4)c3s2)CC1 [Pictilisib] + CC(C)C[C@H](NC(=O)[C@H](Cc1ccccc1)NC(=O)c1cnccn1)B(O)O [Bortezomib] (partner 0.002 µM)
Summary of the method: as §1

Cell Line	relative viability (Pictilisib + OSI-027; first compound 0.02 µM)	relative viability (Pictilisib + OSI-027; first compound 0.06325 µM)	relative viability (Pictilisib + OSI-027; first compound 0.6325 µM)	relative viability (Pictilisib + OSI-027; first compound 2 µM)	relative viability (MK-2206 + Pictilisib; first compound 0.01 µM)	relative viability (MK-2206 + Pictilisib; first compound 0.03162 µM)	relative viability (MK-2206 + Pictilisib; first compound 0.3162 µM)	relative viability (MK-2206 + Pictilisib; first compound 1 µM)	relative viability (MK-2206 + Navitoclax; first compound 0.01 µM)	relative viability (MK-2206 + Navitoclax; first compound 0.03162 µM)	relative viability (MK-2206 + Navitoclax; first compound 0.3162 µM)	relative viability (MK-2206 + Navitoclax; first compound 1 µM)	relative viability (MK-2206 + Linsitinib; first compound 0.01 µM)	relative viability (MK-2206 + Linsitinib; first compound 0.03162 µM)	relative viability (MK-2206 + Linsitinib; first compound 0.3162 µM)	relative viability (MK-2206 + Linsitinib; first compound 1 µM)	relative viability (Pictilisib + Bortezomib; first compound 0.02 µM)	relative viability (Pictilisib + Bortezomib; first compound 0.06325 µM)	relative viability (Pictilisib + Bortezomib; first compound 0.6325 µM)	relative viability (Pictilisib + Bortezomib; first compound 2 µM)
PC-3 [JPC-3]	0.591	0.718	0.621	0.433	0.774	0.874	0.776	0.676	0.817	0.849	0.83	0.825	1.01	0.938	0.91	0.97	0.795	0.87	0.896	0.811
NCI-H2126	0.706	0.75	0.541	0.427	0.522	0.47	0.491	0.468	0.821	0.814	0.782	0.793	0.742	0.634	0.63	0.686	1.05	1.15	1.07	0.923
LU99A	0.286	0.262	0.263	0.214	0.327	0.314	0.261	0.289	0.862	0.77	0.72	0.822	0.51	0.506	0.523	0.421	1.36	1.18	0.757	0.514
NCI-H23	0.708	0.625	0.392	0.25	0.528	0.491	0.444	0.464	0.956	0.899	0.947	0.811	0.583	0.625	0.58	0.628	0.936	1.12	0.768	0.445
PC-14	1.02	1	0.557	0.266	0.635	0.627	0.648	0.514	0.956	1.05	1.1	1.01	0.869	1.03	0.862	0.92	1.04	0.794	0.89	0.573
HCC-44	0.587	0.5	0.405	0.266	0.804	0.619	0.496	0.392	0.868	0.962	0.868	0.818	0.662	0.652	0.556	0.445	1.04	0.9	0.994	0.631
A-427	0.492	0.405	0.393	0.351	0.766	0.676	0.732	0.717	0.937	0.877	0.849	0.902	1.13	1.09	1.14	1.17	1.03	0.949	0.985	0.858
NCI-H596	0.719	0.729	0.353	0.296	0.446	0.386	0.324	0.345	0.948	1.06	0.756	0.669	1.14	1.11	0.846	0.734	1.02	1.09	0.487	0.435
